Measured values taken from US6087509A, “1-Imidazolidinyl-phenyls” (Hoechst Marion Roussel, priority 1995, dated 2000).

How the values were obtained:
androgen receptor = target: T1, androgen receptor (Rattus norvegicus, UniProt P15207); test: Affinity for the androgen receptor (relative bond affinity, tritiated testosterone displacement in rat prostate cytosol); assay type: binding
T1 construct: from tissue; host or cells: prostate cytosol of castrated male Sprague Dawley rats
T1 sequence (P15207 1-902): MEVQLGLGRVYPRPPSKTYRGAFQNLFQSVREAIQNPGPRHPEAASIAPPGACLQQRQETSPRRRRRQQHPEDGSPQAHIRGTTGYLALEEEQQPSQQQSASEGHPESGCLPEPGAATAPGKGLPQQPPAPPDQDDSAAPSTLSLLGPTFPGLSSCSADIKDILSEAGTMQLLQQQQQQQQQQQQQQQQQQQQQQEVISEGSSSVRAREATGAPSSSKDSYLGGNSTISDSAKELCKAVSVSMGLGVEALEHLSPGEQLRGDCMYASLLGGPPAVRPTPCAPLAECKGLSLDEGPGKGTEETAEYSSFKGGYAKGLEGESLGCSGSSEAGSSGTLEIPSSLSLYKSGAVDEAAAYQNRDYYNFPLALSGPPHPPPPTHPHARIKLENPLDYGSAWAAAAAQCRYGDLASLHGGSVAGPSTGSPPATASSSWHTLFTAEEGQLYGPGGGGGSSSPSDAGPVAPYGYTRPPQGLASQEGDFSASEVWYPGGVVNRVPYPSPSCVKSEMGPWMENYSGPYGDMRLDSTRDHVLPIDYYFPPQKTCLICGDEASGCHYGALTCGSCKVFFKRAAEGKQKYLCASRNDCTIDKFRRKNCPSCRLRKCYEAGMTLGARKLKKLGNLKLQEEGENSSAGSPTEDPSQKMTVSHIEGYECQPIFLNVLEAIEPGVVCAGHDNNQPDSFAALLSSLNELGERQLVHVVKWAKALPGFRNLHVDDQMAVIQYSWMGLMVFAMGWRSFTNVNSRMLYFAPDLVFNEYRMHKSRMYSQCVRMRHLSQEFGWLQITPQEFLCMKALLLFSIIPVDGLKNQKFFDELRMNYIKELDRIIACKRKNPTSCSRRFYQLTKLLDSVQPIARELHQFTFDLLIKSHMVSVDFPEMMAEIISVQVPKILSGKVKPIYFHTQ
Experimental: The straight line of the equation I50 =(B/Tmax+B/Tmin)/2 is determined.

[1] = tested on: costovertebral gland of the hamster; test: Reducing effect on the costo-vertebral gland of the hamster (topical antiandrogen activity); assay type: in vivo; details: topical on right-hand C.V.G., 3 weeks (14 administrations), male hamsters, reduction in surface area
Experimental: 2) Determination of the Reducing Effect on the Costo-vertebral Gland of the Hamster
The local activity (topical) of an antiandrogen is determined by the reduction which it brings about in the surface area of the costovertebral gland of the hamster (hereafter C.V.G.), an androgen-dependent organ situated on the flanks of the animal.
The animals are male hamsters weighing about 140 g, 14 weeks old and originating from the Charles River breed (USA), they are subjected to a long photoperiod (16 hours of light, 8 hours of darkness). The animals are treated every day, except for the weekend, for 3 weeks (14 administrations). The product to be tested is applied, by topical route, on the right-hand C.V.G., the left-hand one serving as the control. The surface of the gland has been shaved beforehand. The animals are sacrificed by bleeding the carotid artery 24 hours after the last treatment. The C.V.G.'s are removed, measured and weighed. The local activity of a product is determined by the % of reduction in the surface area of the C.V.G. which it induces in comparison with the 1st day of the experiment and compared to the animals treated with solvent only.

[2] = tested on: prostate in an intact male rat; test: Reducing effect of the weight of the prostate in an intact male rat (systemic antiandrogen activity); assay type: in vivo; details: day 0 to 4 and day 7 to 10, intact male Sprague Dawley rats, compared to solvent only
Experimental: 3) Determination of the Reducing Effect of the Weight of the Prostate in an Intact Male Rat
The systemic activity of an antiandrogen is determined by the reduction in the weight of the prostate which it brings about in an intact animal.
The animals used are male rats of the Sprague Dawley strain weighing about 200 g, 7 weeks old, originating from the Iffa Credo breed (France). The experiment is carried out over two weeks, except for the weekend.
The product can be administered by oral, sub-cutaneous or percutaneous route.
The solvents used are then: by oral route: 0.5% aqueous solution of methylcellulose under a volume of 5 ml/kg, by sub-cutaneous route: wheatgerm oil in 10% ethanol under a volume of 0.2 ml/kg, and by percutaneous route: ethanol under a volume of 50 ul on previously-shaved skin.
The treatment is carried out from day 0 to day 4 then (after the weekend) from day 7 to day 10. The animals are sacrificed the day after the last treatment by bleeding the carotid artery, the prostates are removed and fixed in demineralized water containing 10% formol for 72 hours. They are then dissected and weighed.

Row | Compound | RBA: Incubation 24 hours (androgen receptor) | % CVG reduction with 3 μg/jour [1] [%] | % reduction in the prostate weight with 3 mg/kg P.O. [2] [%]
1 | CCN1C(=O)N(c2ccc(C#N)c(C(F)(F)F)c2)C(=O)C1(CF)CF [Example 3, 4-(2,5-dioxo-4,4-bis(fluoromethyl)-3-ethyl-1-imidazolidinyl)-2-(trifluoromethyl)-benzonitrile] | 43 | -33 | -20
2 | N#Cc1ccc(N2C(=O)N(CCF)C(CF)(CF)C2=O)cc1C(F)(F)F [Example 1, 4-(4,4-bis(fluoromethyl)-2,5-dioxo-3-(2-fluoroethyl)-1-imidazolidinyl)-2-(trifluoromethyl)-benzonitrile] | 42 | -32 | -27
3 | N#Cc1ccc(N2C(=O)N(CCCCO)C3(CCCCC3)C2=O)cc1C(F)(F)F [Example 9, 4-[2,4-dioxo-1-(4-hydroxybutyl)-1,3-diazaspiro-[4.5]decan-3-yl]-2-(trifluoromethyl)-benzonitrile] |  | -25 | 
4 | CC1(C)C(=O)N(c2ccc(C#N)c(C(F)(F)F)c2)C(=O)N1CC#CCO [Example 8, 4-(3-(4-hydroxy-2-butyn-1-yl)-4,4-dimethyl-2,5-dione-1-imidazolidinyl)-2-(trifluoromethyl)-benzonitrile] |  |  | -35
